Activity calls are given as the source filed them.

The target in one experiment is Mu-type opioid receptor (Homo sapiens, UniProt P35372). As to the kind of experiment: SAR Analysis of Antagonists of the MOR Receptor using an Image-Based Assay - Set 3. [Related pubchem assays (depositor defined):AID1777, AID1785, AID1786, AID1966, AID2133, AID2136, AID2284, AID2285, AID2420]. It counts as functional.
Experiment [1] concerns the target Delta-type opioid receptor (Homo sapiens, UniProt P41143). As to the kind of experiment: SAR Analysis of Antagonists of the DOR Receptor using an Image-Based Assay - Set 3. [Related pubchem assays (depositor defined):AID1777, AID1785]. It counts as functional.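 Note: U2OS cells expressing DOR1 and beta-arrestin GFP stimulated with 100 nM SNC80; imaging of GFP-tagged beta-arrestin moving into spots after receptor activation.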
Experiment [2] concerns the target T1, Kappa-type opioid receptor (Homo sapiens, UniProt P41145). Briefly: SAR analysis of small molecule antagonists of the kappa opioid receptor via a luminescent beta-arrestin assay - Set 3. [Related pubchem assays (depositor defined):AID1777, AID1778, AID1785, AID1786, AID1966, AID2133, AID2136, AID2285, AID2495]. It counts as functional.
For experiment [3], the target named is T1, Kappa-type opioid receptor. As to the kind of experiment: SAR analysis of Antagonists of the Kappa Opioid Receptor (KOR) using an Image-Based Assay - Set 4. [Related pubchem assays (depositor defined):AID1777, AID1785]. The class given is functional.
The target of a further experiment is Hexokinase (Trypanosoma brucei, UniProt Q38C41). Briefly: Confirmation assay for inhibitors of Trypanosoma brucei hexokinase 1-Analogue-first series. [Related pubchem assays (depositor defined):AID1430, AID1632, AID2516, AID2560, AID2579, AID2600, AID449725, AID492951]. The class given is functional.
For experiment [4], the target named is Glucose-6-phosphate 1-dehydrogenase (Homo sapiens, UniProt P11413). Briefly: human G6PD enzyme inhibitors, dose response, selectivity assay for P. falciparum G6PD inhibitor project, biochemical, fluorescence (AID 504792). The class given is functional.
For a further experiment, the system named is CHO. Briefly: cytotoxicity in TLR9-MyD88 CHO cells, dose response, cytotoxicity control for TLR9-MyD88 binding inhibitor project, cell-based, luminescence (AID 588339).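 Note: CHO cells stably coexpressing TLR9 and MyD88 fusions from primary screen; compound exposure lasted 48 hours before viability readout.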 It counts as functional, hamster. The settings on record: Cricetulus griseus.
The target in another experiment is Beta Lactamase (Pseudomonas aeruginosa, UniProt Q932Y6). As to the kind of experiment: beta-lactamase reporter inhibitor potency, dose response, artefact control for TLR9-MyD88 binding inhibitor project, BLA reporter cells, FRET fluorescence (AID 588341).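 Note: cell based assay in CHO-K1 cells stably expressing beta-lactamase.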 It counts as cell-based.
For experiment [5], the target named is Glyceraldehyde-3-phosphate dehydrogenase (Homo sapiens, UniProt P04406).
Experiment [6] concerns the target Alkaline phosphatase, placental type (Homo sapiens, UniProt P05187). Briefly: PLAP enzyme inhibitors, confirmation, biochemical, luminescence (AID 1512). The class given is functional.
Experiment [7] deals with T2, Alkaline phosphatase, tissue-nonspecific isozyme (Homo sapiens, UniProt P05186).
T2 sequence (P05186 whole entry): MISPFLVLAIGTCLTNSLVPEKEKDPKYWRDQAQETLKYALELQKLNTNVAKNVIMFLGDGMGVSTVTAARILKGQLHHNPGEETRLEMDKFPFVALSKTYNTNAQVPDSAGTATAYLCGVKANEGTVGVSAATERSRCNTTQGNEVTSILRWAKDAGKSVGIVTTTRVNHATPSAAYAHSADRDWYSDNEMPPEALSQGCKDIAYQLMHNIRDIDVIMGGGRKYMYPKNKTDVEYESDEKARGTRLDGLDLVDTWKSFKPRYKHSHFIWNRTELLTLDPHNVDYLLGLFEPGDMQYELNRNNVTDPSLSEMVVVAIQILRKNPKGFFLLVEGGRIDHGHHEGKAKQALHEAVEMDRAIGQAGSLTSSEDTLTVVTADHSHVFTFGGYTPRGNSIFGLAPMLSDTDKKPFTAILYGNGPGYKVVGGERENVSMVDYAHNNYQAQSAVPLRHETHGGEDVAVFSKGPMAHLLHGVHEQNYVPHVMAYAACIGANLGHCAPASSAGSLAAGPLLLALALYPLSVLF
As to the kind of experiment: human TNAP enzyme inhibitors, SAR follow-up, biochemical, luminescent, dose response (AID 1056).

The test system of a further experiment is T-cell. As to the kind of experiment: inhibitors of CD8+ T cell–vesicle binding, dose response, mouse 2C CD8+ T cells, flow cytometry (AID 485284). It counts as functional. For orientation: A flow cytometer gives signals particle by particle.
Another experiment concerns the target T3, Coagulation factor XII (Homo sapiens, UniProt P00748).
T3 sequence (P00748 whole entry): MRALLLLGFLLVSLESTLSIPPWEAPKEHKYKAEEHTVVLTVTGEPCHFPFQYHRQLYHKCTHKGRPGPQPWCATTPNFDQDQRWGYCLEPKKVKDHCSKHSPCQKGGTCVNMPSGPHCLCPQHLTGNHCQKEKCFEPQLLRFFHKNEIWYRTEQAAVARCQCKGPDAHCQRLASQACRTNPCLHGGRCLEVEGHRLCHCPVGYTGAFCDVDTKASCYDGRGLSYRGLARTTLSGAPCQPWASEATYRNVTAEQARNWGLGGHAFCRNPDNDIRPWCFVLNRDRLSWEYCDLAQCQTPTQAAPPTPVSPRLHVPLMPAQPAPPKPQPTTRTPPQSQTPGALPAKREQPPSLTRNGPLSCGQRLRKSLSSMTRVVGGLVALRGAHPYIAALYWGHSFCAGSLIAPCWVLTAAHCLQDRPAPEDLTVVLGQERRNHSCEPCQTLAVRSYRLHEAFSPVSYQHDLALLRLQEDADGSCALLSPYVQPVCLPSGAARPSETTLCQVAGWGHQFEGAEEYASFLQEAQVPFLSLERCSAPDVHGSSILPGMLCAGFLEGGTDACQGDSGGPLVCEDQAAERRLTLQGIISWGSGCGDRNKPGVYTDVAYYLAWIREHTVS
As to the kind of experiment: Factor XIIa Dose Response Confirmation from Single Well HTS. [Related pubchem assays (depositor defined):AID701]. It counts as functional.

T1 sequence (P41145 whole entry): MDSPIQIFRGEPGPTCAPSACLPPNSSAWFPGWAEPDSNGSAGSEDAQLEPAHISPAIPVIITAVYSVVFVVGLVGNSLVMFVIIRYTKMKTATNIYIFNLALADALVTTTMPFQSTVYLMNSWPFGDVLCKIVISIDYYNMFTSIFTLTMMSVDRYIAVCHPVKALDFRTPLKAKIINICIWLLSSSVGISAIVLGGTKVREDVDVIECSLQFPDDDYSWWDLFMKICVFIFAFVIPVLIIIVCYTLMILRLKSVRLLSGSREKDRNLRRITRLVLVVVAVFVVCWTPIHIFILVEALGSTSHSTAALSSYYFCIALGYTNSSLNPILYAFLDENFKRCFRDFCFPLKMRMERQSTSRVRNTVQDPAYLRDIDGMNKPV
Sequence of Glucose-6-phosphate 1-dehydrogenase (P11413 whole entry, the tested form may be a part): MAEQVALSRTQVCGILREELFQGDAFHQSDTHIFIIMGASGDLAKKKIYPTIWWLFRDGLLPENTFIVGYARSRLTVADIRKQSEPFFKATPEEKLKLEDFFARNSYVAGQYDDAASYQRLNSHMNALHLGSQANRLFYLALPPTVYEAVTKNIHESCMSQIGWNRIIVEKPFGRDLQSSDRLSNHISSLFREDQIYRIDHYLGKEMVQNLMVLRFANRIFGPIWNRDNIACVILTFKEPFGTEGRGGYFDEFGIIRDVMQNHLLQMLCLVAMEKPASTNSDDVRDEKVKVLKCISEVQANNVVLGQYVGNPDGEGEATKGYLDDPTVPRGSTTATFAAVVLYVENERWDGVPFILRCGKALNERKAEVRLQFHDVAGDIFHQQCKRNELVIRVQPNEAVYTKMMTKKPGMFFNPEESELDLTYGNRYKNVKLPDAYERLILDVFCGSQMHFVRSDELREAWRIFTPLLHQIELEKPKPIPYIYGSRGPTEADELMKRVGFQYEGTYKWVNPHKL
Sequence of Alkaline phosphatase, placental type (P05187 whole entry): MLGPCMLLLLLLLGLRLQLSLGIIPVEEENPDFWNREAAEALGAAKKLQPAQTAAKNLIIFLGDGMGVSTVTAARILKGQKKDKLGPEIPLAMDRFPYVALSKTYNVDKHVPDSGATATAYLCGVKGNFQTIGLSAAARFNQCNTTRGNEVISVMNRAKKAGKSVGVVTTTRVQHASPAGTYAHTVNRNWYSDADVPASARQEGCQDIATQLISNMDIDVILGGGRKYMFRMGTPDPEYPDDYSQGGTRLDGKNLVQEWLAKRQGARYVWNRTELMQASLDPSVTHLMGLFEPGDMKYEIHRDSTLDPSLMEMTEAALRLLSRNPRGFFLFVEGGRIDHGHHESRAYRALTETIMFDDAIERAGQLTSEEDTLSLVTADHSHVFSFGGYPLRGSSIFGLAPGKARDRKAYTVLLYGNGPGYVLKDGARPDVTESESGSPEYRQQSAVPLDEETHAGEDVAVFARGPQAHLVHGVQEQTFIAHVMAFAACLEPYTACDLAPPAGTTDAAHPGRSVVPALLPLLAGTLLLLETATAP
Sequence of Delta-type opioid receptor (P41143 whole entry): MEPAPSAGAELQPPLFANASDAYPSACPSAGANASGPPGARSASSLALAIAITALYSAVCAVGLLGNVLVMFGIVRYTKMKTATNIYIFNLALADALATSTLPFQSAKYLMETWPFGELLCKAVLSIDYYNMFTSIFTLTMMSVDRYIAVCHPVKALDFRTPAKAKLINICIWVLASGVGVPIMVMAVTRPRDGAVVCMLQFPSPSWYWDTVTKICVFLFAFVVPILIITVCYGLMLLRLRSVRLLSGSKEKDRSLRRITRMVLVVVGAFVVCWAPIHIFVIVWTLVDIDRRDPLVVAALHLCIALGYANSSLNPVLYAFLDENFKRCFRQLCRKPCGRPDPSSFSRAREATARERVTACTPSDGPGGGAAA
Sequence of Mu-type opioid receptor (P35372 whole entry): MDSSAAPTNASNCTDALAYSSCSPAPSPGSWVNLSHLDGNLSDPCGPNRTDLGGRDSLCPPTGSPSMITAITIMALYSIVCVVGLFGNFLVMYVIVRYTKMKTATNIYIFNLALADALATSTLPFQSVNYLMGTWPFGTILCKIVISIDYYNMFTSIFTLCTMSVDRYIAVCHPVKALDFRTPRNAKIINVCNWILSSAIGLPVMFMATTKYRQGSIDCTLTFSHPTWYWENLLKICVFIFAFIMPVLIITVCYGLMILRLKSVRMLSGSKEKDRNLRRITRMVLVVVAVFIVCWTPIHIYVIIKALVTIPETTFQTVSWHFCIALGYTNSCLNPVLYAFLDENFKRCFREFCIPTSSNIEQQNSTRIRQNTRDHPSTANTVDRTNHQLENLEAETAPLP
Sequence of Glyceraldehyde-3-phosphate dehydrogenase (P04406 whole entry): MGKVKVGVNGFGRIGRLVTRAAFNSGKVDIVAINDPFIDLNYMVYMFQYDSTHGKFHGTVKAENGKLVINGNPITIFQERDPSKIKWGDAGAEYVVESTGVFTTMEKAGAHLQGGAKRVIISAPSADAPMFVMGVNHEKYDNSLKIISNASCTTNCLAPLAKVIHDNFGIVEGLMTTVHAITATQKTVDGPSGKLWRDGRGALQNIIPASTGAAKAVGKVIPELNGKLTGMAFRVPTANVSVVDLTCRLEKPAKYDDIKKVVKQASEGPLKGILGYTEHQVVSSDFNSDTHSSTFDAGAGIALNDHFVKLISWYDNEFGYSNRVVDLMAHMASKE
Sequence of Hexokinase (Q38C41 whole entry): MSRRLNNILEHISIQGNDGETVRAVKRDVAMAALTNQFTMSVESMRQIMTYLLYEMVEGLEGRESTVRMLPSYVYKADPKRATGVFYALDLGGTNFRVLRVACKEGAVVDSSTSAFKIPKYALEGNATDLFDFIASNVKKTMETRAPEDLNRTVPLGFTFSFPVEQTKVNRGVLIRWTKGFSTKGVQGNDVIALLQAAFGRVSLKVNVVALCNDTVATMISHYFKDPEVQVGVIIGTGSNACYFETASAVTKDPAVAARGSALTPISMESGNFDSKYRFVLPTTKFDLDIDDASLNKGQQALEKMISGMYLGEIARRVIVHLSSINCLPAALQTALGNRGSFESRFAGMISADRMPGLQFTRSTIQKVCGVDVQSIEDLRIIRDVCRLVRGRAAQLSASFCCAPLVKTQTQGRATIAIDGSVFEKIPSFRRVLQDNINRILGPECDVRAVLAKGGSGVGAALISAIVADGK
Sequence of Beta Lactamase (Q932Y6 whole entry): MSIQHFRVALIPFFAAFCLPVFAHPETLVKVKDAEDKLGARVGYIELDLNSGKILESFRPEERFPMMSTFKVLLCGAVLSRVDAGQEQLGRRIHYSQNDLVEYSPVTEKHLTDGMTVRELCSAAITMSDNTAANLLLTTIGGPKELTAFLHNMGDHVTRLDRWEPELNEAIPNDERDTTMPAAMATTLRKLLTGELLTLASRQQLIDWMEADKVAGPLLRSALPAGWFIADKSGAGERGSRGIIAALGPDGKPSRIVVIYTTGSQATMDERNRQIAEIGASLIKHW

Broadly, the IC50 is the midpoint of a concentration-inhibition curve. With `Cc1ccc(N2CCN(CCCNC(=O)Cn3c(=O)c4cccn4c4c(C)ccnc43)CC2)cc1`, the IC50 at Mu-type opioid receptor is > 32 µM (inactive); in experiment [1], > 32 µM (inactive); in experiment [2] it was 0.875 µM (active); in [3], 2.28 µM (active).
`O=c1c2cc(C(F)(F)F)ccc2sn1-c1ccccc1`: the IC50 is > 25 µM (inactive) on Hexokinase, 18.3 µM (active) in experiment [4], 9.07 µM (active) in the experiment on CHO and > 49.8 µM (inactive) at Beta Lactamase.
Regarding `CC(C)Cc1nc(N)nn1-c1ccccc1`, the values for the concentration for half-maximal inhibition (IC50) in experiment [5], in experiment [6] and in [7] were > 100 µM (not active), > 100 µM (inactive) and > 100 µM (inactive), respectively.
In general, EC50 refers to the concentration giving half of the maximal effect. With `CC(=O)c1ccc(-c2csc(N3CCC(C(N)=O)CC3)n2)cc1`, the EC50 with T-cell was 2.47 µM (active).
`O=C(C1CCC1)N(CCc1ccccc1)Cc1nc(O)c2ccccc2n1`: on Coagulation factor XII, the IC50 is > 50 µM (inactive).

These data come from ChEMBL document CHEMBL1201862, “PubChem BioAssay data set” (2004).
